Assay results from PMC12362618, “Development of the First Small-Molecule Inhibitor Targeting Oncostatin M for Treatment of Breast Cancer” (Journal of Medicinal Chemistry, 2025).
“Also recorded” adds a separate entry of the source. Values belong to the molecule of their own block, whether it stands above or below them.

Key:
[1] = target: T1, OSM (Homo sapiens, UniProt P13725); experiment: Fluorescence quenching assay of SMI binding to OSM; conditions: average of three independent replicates, errors at 95% confidence level, read-out: KD (OSM-SMI dissociation constant)
T1 sequence (P13725 26-252): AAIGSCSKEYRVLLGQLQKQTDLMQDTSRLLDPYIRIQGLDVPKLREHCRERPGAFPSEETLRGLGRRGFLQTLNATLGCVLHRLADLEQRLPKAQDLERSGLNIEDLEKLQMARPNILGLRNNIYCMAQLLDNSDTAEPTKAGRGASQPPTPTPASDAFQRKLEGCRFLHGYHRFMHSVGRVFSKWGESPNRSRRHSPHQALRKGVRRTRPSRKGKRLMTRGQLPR
Experimental: To perform fluorescence quenching assays, 2 mL of 1 μM OSM solution in polymethylmethacrylate cuvettes was prepared by dilution of a concentrated stock solution of recombinant OSM with buffer solution (100 mM sodium chloride, 50 mM sodium phosphate, 50 mM freshly added DTT, pH = 6.6). Cuvettes were titrated with 5 μL increments of a 1 mM small molecule stock solution in DMSO, with a cuvette titrated with an equivalent volume of DMSO as a control. […] In cases where little to no significant quenching was observed, the titration was supplemented with 2.5 μL increments of a 10 mM small molecule stock solution to increase the concentration delivered. The fluorescence intensity measurements were obtained on a Cary Eclipse spectrofluorometer equipped with a Xenon arc lamp. Fluorescence intensities were measured by exciting at 280 nm (4 nm slit width) and recording the emission from 345 to 355 nm with a photomultiplier tube voltage of 700 V, unless otherwise noted. Each titration point was normalized to OSM’s native fluorescence intensity, corrected by adding the decrease in fluorescence intensity caused by dilution with DMSO, and the average value of the three replicates for each point was plotted against concentration of small molecule delivered and fit to a modified Stern–Volmer function as described by Charlier and Plapp. Binding affinity (K D) values were obtained […] from the fitting routine. All curve-fitting analysis was performed in GraphPad Prism 8.0.

[2] = tested on: OSM-induced pSTAT3 in T47D human breast cancer cells; experiment: pSTAT3 ELISA in T47D cells treated with OSM ± SMI; assay type: cell-based; conditions: T47D, 30 min; for Relative pSTAT3 Levels (Table 1, SMI-10A-10J): SMI 10 μM + OSM 10 ng/mL, ELISA, relative to +OSM, no-treatment blank subtracted; for Inhibition of OSM-induced pSTAT3 via ELISA: SMI 10 μM, OSM 10 ng/mL
Experimental: (§1) To test the effect of SMIs in vitro, each SMI was incubated with OSM for a period of 1 h at 37 °C, and T47D and MDA-MB-231 human breast cancer cell lines were subsequently treated with OSM (10 ng/mL) and/or SMI-10 (10 μM) analogs for 30 min and measured for pSTAT3 levels via ELISA. The results of these assays are presented graphically in Figure and, for T47D cells, in Table as a percentage of reduction from +OSM alone. For phospho-STAT3 (pSTAT3) ELISAs, T47D MDA-MB-231, and MCF-7 cells were seeded in 12- or 24-well plates at 70–75% confluency and allowed to adhere overnight, after which cells were serum-starved with serum-free RPMI-1640 for 4 h. SMIs (10 μM in DMSO or serially diluted to specified concentrations from a 100 mM stock in DMSO) and human recombinant OSM (10 ng/mL; PeproTech; #300–10T-10UG) were incubated in serum-free RPMI-1640 medium for 1 h. After incubation, the SMI-10 analogs or SMI-10B13 and OSM were added to the serum-starved cells for 30 min. Immediately afterward, the cells were lysed using 1x PathScan Sandwich ELISA Lysis Buffer (Cell Signaling Technology; #7018S), collected, and stored at −20 °C. Lysates were analyzed for pSTAT3 levels using either the PathScan Phospho-STAT3 (Tyr705) Sandwich ELISA Antibody Pair kit (Cell Signaling Technology; #7146) or Human/Mouse Phospho-STAT3 (Y705) DuoSet IC ELISA (R&D Systems; DYC4607B), according to manufacture’s protocol. pSTAT3 expression was measured with absorbance at 450 nm and quantified by comparison relative to OSM-induced pSTAT3 levels. To calculate an IC50 for SMI-10B13, a standard curve was generated as described in the DuoSet IC ELISA datasheet to determine the concentration of pSTAT3.

[3] = tested on: OSM-induced pSTAT3 in MDA-MB-231 human breast cancer cells; experiment: pSTAT3 ELISA in MDA-MB-231 cells treated with OSM ± SMI; assay type: cell-based; conditions: SMI 10 μM, OSM 10 ng/mL, 30 min
Experimental: as §1, with “2 High-throughput virtual screening identifies three novel compounds capable of interacting with site III of OSM. […] (F) Structure of parent SMI-10. Data are presented as mean ± SD relative to + OSM treatment, analyzed by one-way ANOVA with Tukey’s posttest *p < 0.05, **p < 0.01. To test” for “To test”

[4] = tested on: OSM-mediated signaling (pSTAT3, pAKT, pJNK, pERK) in T47D cells; experiment: Immunoblot of OSM-mediated signaling in T47D cells; assay type: cell-based, human; conditions: SMI 10 μM, OSM 10 ng/mL, 30 min
Experimental: For immunoblot analysis, T47D breast cancer cells were treated and collected in the same manner as described above for the ELISA preparation. After lysate collection, samples were run on a 10% SDS-PAGE gel and transferred to a nitrocellulose membrane via semidry transfer. Blots were rinsed with DI H2O and allowed to completely dry at room temperature before blocking with LiCor Intercept PBS Blocking Buffer (LiCor, Lincoln, NE; Cat# 927-90001) for 1 h. After blocking, primary antibodies (1:1000) suspended in blocking buffer supplemented with 0.1% Tween were added, shaken at room temperature for 1 h, and stored at 4 °C overnight. Membranes were then washed 6 times for 5 minutes each with 1X PBS supplemented with 0.5% Tween while shaking at room temperature, and secondary antibodies (1:15,000) were applied and incubated for 1 h. Afterward, membranes were washed as previously described above and imaged at 700 nm using the LiCor Odyssey CLx Imaging System. Quantification of immunoblots was performed using the LiCor Image Studio software, normalizing to β-Actin, and calculating relative fold change compared to nontreated samples. Antibodies used included phospho-STAT3 (Y705) (Cell Signaling Technology, Danvers, MA; cat. no. 9145), phospho-AKT (S473) (Cell Signaling Technology, Danvers, MA; cat. no. 4060), phospho-JNK ([…]/[…]) (Cell Signaling Technology, Danvers, MA; cat. no. 4668), phospho-ERK (T202/Y204) (Cell Signaling Technology, Danvers, MA; cat. no. 9101), β-Actin (Cell Signaling Technology; cat. no. 3700), and donkey antirabbit IRDye 800CW (LiCor, Lincoln, NE; Cat# 925-32213).

[5] = tested on: T47D and MCF-7 human breast cancer cells; experiment: MTS cell viability assay; assay type: cell-based
Experimental: Cell viability was assessed using the CellTiter 96 AQueous One Solution Cell Proliferation Assay (Promega, cat. no. G3580), following the manufacturer’s instructions. Briefly, T47D and MCF-7 human breast cancer cells were seeded in 96-well plates at a density of 10,000 cells/well in 100 μL of complete growth medium and allowed to adhere overnight. Cells were then treated with a serial dilution (100 μM to 0.1 nM) of SMI-10B, SMI-10B13, Temozolomide (positive control), or vehicle (DMSO) for 24 h. Following treatment, 20 μL of MTS reagent was added directly to each well, and plates were incubated at 37 °C in a humidified incubator with 5% CO2 and imaged after 1 h of incubation. Absorbance was measured at 490 nm by using a microplate reader. Cell viability was expressed as a percentage relative to the vehicle-treated controls, and experiments were performed in triplicate.

Structure (SMILES): C(=N\Nc1ccccc1)/c1cc(-c2ccc3c(c2)OCO3)c(-c2ccc3c(c2)OCO3)o1 [SMI-10E, (E)-1-((4,5-Bis(benzo[d][1,3]dioxol-5-yl)furan-2-yl)methylene)-2-phenylhydrazine]
Kd [1]: 21.2 ± 2.7 µM
Relative pSTAT3 Levels (Table 1, SMI-10A-10J) [2]: 10.2%
Inhibition of OSM-induced pSTAT3 via ELISA [2]: capable of inhibiting OSM-induced pSTAT3
Inhibition of OSM-induced pSTAT3 via ELISA [3]: capable of inhibiting OSM-induced pSTAT3
Inhibition of OSM-mediated signaling cascades by immunoblot (words) [4]: capable of inhibiting multiple cascades; also recorded: significant reductions, near nontreated levels

Structure (SMILES): Cn1nnc2c(C(N)=O)ncn2c1=O [Temozolomide, reference compound]
Cytotoxicity / cell viability via MTS assay [5]: moderate toxicity as concentration increases

Structure (SMILES): O=C(/C=C/c1ccccc1)c1cc(-c2ccc3c(c2)OCO3)c(-c2ccc3c(c2)OCO3)o1 [SMI-10G, (E)-1-(4,5-Bis(benzo[d][1,3]dioxol-5-yl)furan-2-yl)-3-phenylprop-2-en-1-one]
Kd [1]: 21.9 ± 3.5 µM
Relative pSTAT3 Levels (Table 1, SMI-10A-10J) [2]: 8.8%
Inhibition of OSM-induced pSTAT3 via ELISA [2]: capable of inhibiting OSM-induced pSTAT3
Inhibition of OSM-induced pSTAT3 via ELISA [3]: capable of inhibiting OSM-induced pSTAT3
Inhibition of OSM-mediated signaling cascades by immunoblot (words) [4]: capable of inhibiting multiple cascades; also recorded: significant reductions, near nontreated levels

More lines, in order of falling Kd [1], values ahead:

Kd [1]: 32.5 ± 3.4 µM
Structure (SMILES): O=C(/C=C/c1cc(-c2ccc3c(c2)OCO3)c(-c2ccc3c(c2)OCO3)o1)c1ccccc1 [SMI-10C]
Relative pSTAT3 Levels (Table 1, SMI-10A-10J) [2]: 11.9%
Inhibition of OSM-induced pSTAT3 via ELISA [2]: capable of inhibiting OSM-induced pSTAT3
Inhibition of OSM-induced pSTAT3 via ELISA [3]: capable of inhibiting OSM-induced pSTAT3
Inhibition of OSM-mediated signaling cascades by immunoblot (words) [4]: capable of inhibiting multiple cascades; also recorded: significant reductions, near nontreated levels

Kd [1]: 20.9 ± 2.4 µM
Structure (SMILES): CCOC(=O)/C=C/c1cc(-c2ccc3c(c2)OCO3)c(-c2ccc3c(c2)OCO3)o1 [SMI-10D, Ethyl (E)-3-(4,5-Bis(benzo[d][1,3]dioxol-5-yl)furan-2-yl)acrylate]
Relative pSTAT3 Levels (Table 1, SMI-10A-10J) [2]: 9.0%
Inhibition of OSM-induced pSTAT3 via ELISA [2]: capable of inhibiting OSM-induced pSTAT3
Inhibition of OSM-induced pSTAT3 via ELISA [3]: capable of inhibiting OSM-induced pSTAT3
Inhibition of OSM-mediated signaling cascades by immunoblot (words) [4]: capable of inhibiting multiple cascades; also recorded: significant reductions, near nontreated levels

Kd [1]: 16.8 ± 4.1 µM
Structure (SMILES): c1ccc(CNCc2cc(-c3ccc4c(c3)OCO4)c(-c3ccc4c(c3)OCO4)o2)cc1 [SMI-10F, N-Benzyl-1-(4,5-bis(benzo[d][1,3]dioxol-5-yl)furan-2-yl)methanamine]
Relative pSTAT3 Levels (Table 1, SMI-10A-10J) [2]: 10.1%
Inhibition of OSM-induced pSTAT3 via ELISA [2]: capable of inhibiting OSM-induced pSTAT3
Inhibition of OSM-induced pSTAT3 via ELISA [3]: capable of inhibiting OSM-induced pSTAT3
Inhibition of OSM-mediated signaling cascades by immunoblot (words) [4]: capable of inhibiting multiple cascades; also recorded: significant reductions, near nontreated levels
